Experimental data: the SangsterLogP compilation

Legend:
[1] = method code SF-HPLC, from DOI: 10.1023/a:1015862319927, PMID: 2062808; settings: pH 7.4
[2] = method code SF-AS, from DOI: 10.1248/cpb.32.5003, PMID: 6534549
[3] = method code SF-HPLC, from DOI: 10.1016/0378-5173(89)90028-8
[4] = method code SF-RC, from DOI: 10.1016/s0969-8051(02)00326-8, PMID: 12234587; settings: pH 7.4
[5] = not given; remark: listed apart in the source
[6] = method code SF-HPLC, from DOI: 10.1016/s0021-9673(99)01336-9, PMID: 10757301
[7] = method code SF-AS, from DOI: 10.1002/chin.198428254
[8] = method code SF-HPLC, from DOI: 10.1039/a702469j; settings: pH 7.0
[9] = method code SF, from DOI: 10.1021/jm00237a002, PMID: 1133810; settings: pH 7.2
[10] = not given; remark: listed apart in the source
[11] = method code SF-AS, from DOI: 10.1002/ps.2780160411
[12] = pH 7.4
[13] = method code SF-AS, from DOI: 10.1021/jm00395a009, PMID: 3681892; settings: pH 7.4
[14] = method code SF-RC, from Godoy, N.; Valle, L.; Mena, P.; Gil, M. (1989). Synthesis, labeling and biodistribution of 99mTc-labelled bromoimino diacetic acids. Nucleotecnica, 9(17)25-32.
[15] = not given; remark: listed apart in the source
[16] = not given; remark: listed apart in the source
[17] = method code SF-AS, from DOI: 10.1021/jm00296a014, PMID: 5418493
[18] = method code SF-AS, from DOI: 10.1163/156856796x00098; settings: pH 7.4
[19] = method code SF-AS, from DOI: 10.1002/etc.5620180606
[20] = not given; remark: listed apart in the source
[21] = not given; remark: listed apart in the source

Which logD [1] does the source give for `COc1ccc(C(=O)OCC2OC(n3cc(I)c(=O)[nH]c3=O)CC2O)cc1` (centres undefined) here?
Its logD is 1.38.

With `O=C(Cc1ccccc1)Nc1ccccc1[N+](=O)[O-]` as the molecule, how does the logP [2] read?
Its logP is 2.73.

For `Cc1cccc2c1Cc1ccccc1-2`, which logP is on record?
The logP was 4.97.

Which logP [3] does the source give for `CCCC(=O)OCOC(=O)c1cn(CC)c2nc(C)ccc2c1=O` here?
The logP was 2.2.

With `CN(C)c1ccc(-c2cc3cc(I)ccc3o2)cc1` as the molecule, how does the logD [4] read?
The logD was 2.35.

With `COc1ccc(-c2cc(C#N)c(Cl)nc2C)cc1OC` as the molecule, how does the logP [5] read?
Its logP is 2.86.

Which logP [6] does the source give for `CC(=O)OCC1=C(C(=O)O)N2C(=O)C(NC(=O)Cc3cccs3)C2SC1` (centres undefined) here?
The logP was 0.08.

For `O=C(NCCN1CCN2Cc3[nH]c4ccccc4c3CC2C1)c1ccccc1` (centres undefined), which logP [7] is on record?
The logP was 1.52.

Which logD [8] does the source give for `CCOP(=O)(OCC)C(C)(C)[N+]([O-])=Cc1cc[n+]([O-])cc1` here?
Its logD is -0.68.

Which logD [9] does the source give for `CC(C)Oc1cnc(NS(=O)(=O)c2ccccc2)nc1` here?
The logD was 0.86.

For `CCn1cc(C(=O)OC)c(=O)c2ccc(C)nc21`, which logP [3] is on record?
The logP was 1.23.

For `COc1ccc(Cc2nccc3cc(OC)c(OC)cc23)cc1OC`, which logP [10] is on record?
The logP was 2.95.

Which logP [11] does the source give for `CC(C)CCCCCOC(=O)COc1ccc(Cl)cc1Cl` here?
The logP was 5.73.

With `CCCCCSCS(=O)CC(CO)NC(=O)/C=C/c1c(C)[nH]c(=O)[nH]c1=O` (centres undefined) as the molecule, how does the logD [12] read?
Its logD is 0.6.

For `CC(=O)OC[C@H]1O[C@@H](n2ccc(=O)[nH]c2=O)[C@H](OC(C)=O)[C@@H]1OC(C)=O`, which logD [13] is on record?
Its logD is -0.36.

For `Cc1ccc(Br)c(C)c1NC(=O)CN(CC(=O)O)CC(=O)O`, which logP [14] is on record?
The logP was 0.28.

For `COc1c(Br)cccc1C(=CC(=O)C(C)(C)C)n1cncn1`, which logP [11] is on record?
The logP was 3.2.

Which logP [15] does the source give for `CCc1nc(S(=O)(=O)Nc2c(F)cccc2F)nn1-c1ccccc1` here?
Its logP is 3.7.

Which logD [4] does the source give for `CN(C)c1ccc(-c2cc3ccc(I)cc3o2)cc1` here?
The logD was 2.12.

Which logD [1] does the source give for `CC(C)C(=O)OCC1OC(n2cc(I)c(=O)[nH]c2=O)C1O` (centres undefined) here?
Its logD is 0.83.

Which logD [8] does the source give for `CCOP(=O)(OCC)C(C)(C)[N+]([O-])=Cc1cccnc1` here?
The logD was 0.41.

For `Cc1nc(NCC(C)O)c(C#N)cc1-c1ccccc1` (centres undefined), which logP [5] is on record?
Its logP is 2.72.

For `Nc1ccccc1NC(=O)Cc1ccccc1`, which logP [2] is on record?
Its logP is 1.45.

With `Cc1ccc(Cl)c(Nc2ccccc2C(=O)O)c1Cl` as the molecule, how does the logP [10] read?
Its logP is 5.9.

For `c1ccc2c3c([nH]c2c1)CN1CCNCC1C3` (centres undefined), which logP [7] is on record?
Its logP is 0.36.

Which logP does the source give for `c1ccc2c(c1)Cc1cc3ccccc3cc1-2` here?
Its logP is 5.75.

Which logP [16] does the source give for `Cc1cc(C)cc(OP(=O)(Oc2cc(C)cc(C)c2)Oc2cc(C)cc(C)c2)c1` here?
The logP was 5.26.

Which logP [17] does the source give for `O=C(O)C1c2ccccc2Sc2ccccc21` here?
Its logP is 2.57.

For `CCOP(=O)(CC(C)(C)[N+]([O-])=Cc1ccccc1)OCC`, which logD [18] is on record?
The logD was 1.

With `CSC[S@](=O)C[C@H](C)NC(=O)/C=C/c1c(C)[nH]c(=O)[nH]c1=O` as the molecule, how does the logD [12] read?
The logD was -0.7.

With `N#CCN(CCO)c1ccc(N=Nc2nc3ccc([N+](=O)[O-])cc3s2)cc1` as the molecule, how does the logP [19] read?
Its logP is 4.08.

Which logP [5] does the source give for `Cc1nc(NCCCO)c(C#N)cc1-c1ccccc1` here?
The logP was 2.72.

With `Clc1cccc(Cl)c1C=NN=c1ccn(CCCc2ccccc2)cc1` as the molecule, how does the logP [20] read?
The logP was 3.9.

Which logD [1] does the source give for `O=C(OC[C@H]1O[C@@H](n2cc(I)c(=O)[nH]c2=O)C[C@@H]1O)c1ccc([N+](=O)[O-])cc1` here?
The logD was 1.24.

Which logD [13] does the source give for `COCC1OC(n2ccc(=O)n(Cc3ccccc3)c2=O)C(OC)C1OC` (centres undefined) here?
The logD was 1.81.

With `CS(=O)(=O)NC(=O)c1cc(Oc2ccc(C(F)(F)F)cc2Cl)ccc1[N+](=O)[O-]` as the molecule, how does the logP [11] read?
Its logP is 2.9.

Which logD [8] does the source give for `CCOP(=O)(OCC)C(C)(C)[N+]([O-])=Cc1ccncc1` here?
Its logD is 0.32.

Which logP [20] does the source give for `ON=C1CCN(CCCc2ccccc2)CC1` here?
The logP was 2.8.

Which logP [21] does the source give for `OC(Cn1cncn1)(c1ccc(F)cc1)c1ccccc1F` (centres undefined) here?
Its logP is 2.3.
